Measured values: patent US20210253557A1, “SUBSTITUTED TRIAZOLE DERIVATIVES AND USES THEREOF” (Bayer Pharma Aktiengesellschaft, priority 2017, published 2021)
Where a name gives a salt, the structure may show the parent alone.

How the values were obtained:
human V1a receptor = target: T1, human V1a receptor (Homo sapiens, UniProt P37288); assay: Cellular in vitro assay for determining vasopressin receptor activity (V1a, aequorin luminescence); type: cell-based; settings: for IC50: CHO cell line transfected with the human V1a receptor, [Arg8]-vasopressin at EC50 concentration, read-out: IC50 hV1a; for ratio IC50 hV2/hV1a: selectivity ratio of IC50 hV2 to IC50 hV1a
T1 construct: expressed in transfected cells; host or cells: CHO K1 (ATCC), also stably transfected with a modified aequorin
T1 sequence (P37288 whole entry): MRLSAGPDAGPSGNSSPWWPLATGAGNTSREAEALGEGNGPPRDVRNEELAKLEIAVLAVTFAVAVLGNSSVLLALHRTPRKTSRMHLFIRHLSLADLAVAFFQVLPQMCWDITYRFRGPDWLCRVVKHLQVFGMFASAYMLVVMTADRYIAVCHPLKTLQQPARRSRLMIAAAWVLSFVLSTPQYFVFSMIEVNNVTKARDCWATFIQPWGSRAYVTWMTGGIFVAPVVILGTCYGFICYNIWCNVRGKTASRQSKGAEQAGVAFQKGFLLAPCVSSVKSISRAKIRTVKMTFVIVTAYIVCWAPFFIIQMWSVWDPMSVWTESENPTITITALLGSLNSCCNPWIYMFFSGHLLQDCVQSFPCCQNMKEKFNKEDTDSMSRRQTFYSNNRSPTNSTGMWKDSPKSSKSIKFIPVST
Method: (§1) B-1. Cellular In Vitro Assay for Determining Vasopressin Receptor Activity
(§2) The identification of agonists and antagonists of the V1a and V2 vasopressin receptors from humans, rats and dogs as well as the quantification of the activity of the compounds of the invention is carried out using recombinant cell lines. These cell lines originally derive from a hamster's ovary epithelial cell (Chinese Hamster Ovary, CHO K1, ATCC: American Type Culture Collection, Manassas, Va. 20108, USA). The test cell lines constitutively express the human, rat or dog V1a or V2 receptors. In case of the Gαq-coupled V1a receptors, cells are also stably transfected with a modified form of the calcium-sensitive photoproteins aequorin (human and rat V1a) or obelin (dog V1a), which, after reconstitution with the cofactor coelenterazine, emit light when there are increases in free calcium concentrations [Rizzuto R, Simpson A W, Brini M, Pozzan T, Nature 358, 325-327 (1992); Illarionov B A, Bondar V S, Illarionova V A, Vysotski E S, Gene 153 (2), 273-274 (1995)]. The resulting vasopressin receptor cells react to stimulation of the recombinantly expressed V1a receptors by intracellular release of calcium ions, which can be quantified by the resulting photoprotein luminescence. The Gs-coupled V2 receptors are stably transfected into cell lines expressing the gene for firefly luciferase under control of a CRE-responsible promoter. Activation of V2 receptors induces the activation of the CRE-responsive promoter via cAMP increase, thereby inducing the expression of firefly luciferase. The light emitted by photoproteins of V1a cell lines as well as the light emitted by firefly luciferase of V2 cell lines corresponds to the activation or inhibition of the respective vasopressin receptor. The bioluminescence of the cell lines is detected using a suitable luminometer [Milligan G, Marshall F, Rees S, Trends in Pharmacological Sciences 17, 235-237 (1996)].
Vasopressin V1a receptor cell lines:
On the day before the assay, the cells are plated out in culture medium (DMEM/F12, 2% FCS, 2 mM glutamine, 10 mM HEPES, 5 μg/ml coelenterazine) in 384-well microtiter plates and kept in a cell incubator (96% humidity, 5% v/v CO2, 37° C.). On the day of the assay, test compounds in various concentrations are placed for 10 minutes in the wells of the microtiter plate before the agonist [Arg^8]-vasopressin at EC50 concentration is added. The resulting light signal is measured immediately in a luminometer.
(§3) Table 1A below lists individual IC50 values for the compounds of the invention (including racemic mixtures as well as separated enantiomers) that were obtained from cell lines transfected with the human V1a or V2 receptor: […]

human V2 receptor = target: T2, human V2 receptor (Homo sapiens, UniProt P30518); assay: Cellular in vitro assay for determining vasopressin receptor activity (V2, CRE-luciferase); type: cell-based; settings: CHO cell line transfected with the human V2 receptor; [Arg8]-vasopressin at EC50 concentration; read-out: IC50 hV2
T2 construct: expressed in transfected cells; host or cells: CHO K1 (ATCC) expressing firefly luciferase under a CRE-responsive promoter
T2 sequence (P30518 whole entry): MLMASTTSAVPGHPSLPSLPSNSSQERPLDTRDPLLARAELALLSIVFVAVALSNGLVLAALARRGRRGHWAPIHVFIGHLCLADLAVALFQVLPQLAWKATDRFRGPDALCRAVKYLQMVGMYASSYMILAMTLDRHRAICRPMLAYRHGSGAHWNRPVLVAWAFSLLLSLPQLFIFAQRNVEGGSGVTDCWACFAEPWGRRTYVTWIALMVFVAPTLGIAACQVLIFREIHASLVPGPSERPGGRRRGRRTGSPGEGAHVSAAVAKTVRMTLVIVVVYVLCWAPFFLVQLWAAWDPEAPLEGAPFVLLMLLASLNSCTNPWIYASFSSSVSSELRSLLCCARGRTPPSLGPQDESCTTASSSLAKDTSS
Method: as §1, §2
Vasopressin V2 receptor cell lines:
On the day before the assay, the cells are plated out in culture medium (DMEM/F12, 2% FCS, 2 mM glutamine, 10 mM HEPES) in 384-well microtiter plates and kept in a cell incubator (96% humidity, 5% v/v CO2, 37° C.). On the day of the assay, test compounds in various concentrations and the agonist [Arg^8]-vasopressin at EC50 concentration are added together to the wells, and plates are incubated for 3 hours in a cell incubator. Upon addition of the cell lysis reagent Triton™ and the substrate luciferin, luminescence of firefly luciferase is measured in a luminometer.
as §3

| Structure (SMILES) | IC50 (human V1a receptor) [nM] | ratio IC50 hV2/hV1a (human V1a receptor) | IC50 (human V2 receptor) [nM] |
| --- | --- | --- | --- |
| C[C@H](NC(=O)OC(C)(C)C)c1nc(Cn2nc(-c3ccc(Cl)cc3)n(C[C@H](O)C(F)(F)F)c2=O)nn1-c1cccc(Cl)c1 [Example 56, tert-Butyl {(1S)-1-[1-(3-chlorophenyl)-3-({3-(4-chlorophenyl)-5-oxo-4-[(2S)-3,3,3-trifluoro-2-hydroxypropyl]-4,5-dihydro-1H-1,2,4-triazol-1-yl}methyl)-1H-1,2,4-triazol-5-yl]ethyl}Carbamate] | 286 | 0.1 | 33.4 |
| NC(=O)OCc1nc(Cn2nc(-c3ccc(Cl)cc3)n(C[C@H](OC(N)=O)C(F)(F)F)c2=O)nn1-c1cccc(Cl)c1 [Example 25, (2S)-3-[1-({5-[(Carbamoyloxy)methyl]-1-(3-chlorophenyl)-1H-1,2,4-triazol-3-yl}methyl)-3-(4-chlorophenyl)-5-oxo-1,5-dihydro-4H-1,2,4-triazol-4-yl]-1,1,1-trifluoropropan-2-yl Carbamate] | 26.6 | 0.1 | 2.26 |
| COc1ccccc1-n1nc(Cn2nc(-c3ccc(Cl)cc3)n(C[C@H](OC(N)=O)C(F)(F)F)c2=O)nc1C(C)OC(N)=O (single isomer, unassigned) [Example 40] | 5.86 | 1.1 | 6.35 |
| NC(CO)c1nc(Cn2nc(-c3ccc(Cl)cc3)n(C[C@H](O)C(F)(F)F)c2=O)nn1-c1ccccc1Cl (mixture of isomers) [Example 81, 2-({5-[1-Amino-2-hydroxyethyl]-1-(2-chlorophenyl)-1H-1,2,4-triazol-3-yl}methyl)-5-(4-chlorophenyl)-4-[(2S)-3,3,3-trifluoro-2-hydroxypropyl]-2,4-dihydro-3H-1,2,4-triazol-3-one hydrochloride] | 1.25 | 6.4 | 7.95 |
| CC(N)c1nc(Cn2nc(-c3ccc(Cl)cc3)n(C[C@H](O)C(F)(F)F)c2=O)nn1-c1cccc(F)c1 (single isomer, unassigned) [Example 55] | 18 | 1.4 | 26 |
| CNC(=O)OCc1nc(Cn2nc(-c3ccc(Cl)cc3)n(C[C@H](O)C(F)(F)F)c2=O)nn1-c1cccc(F)c1 [Example 46, [3-({3-(4-Chlorophenyl)-5-oxo-4-[(2S)-3,3,3-trifluoro-2-hydroxypropyl]-4,5-dihydro-1H-1,2,4-triazol-1-yl}methyl)-1-(3-fluorophenyl)-1H-1,2,4-triazol-5-yl]methyl Methylcarbamate] | 6.47 | 1.5 | 9.36 |
| C[C@H](OC(N)=O)c1nc(Cn2nc(-c3ccc(Cl)cc3)n(C[C@H](O)C(F)(F)F)c2=O)nn1-c1c(Cl)cccc1Cl [Example 1, (1S)-1-[3-({3-(4-Chlorophenyl)-5-oxo-4-[(2S)-3,3,3-trifluoro-2-hydroxypropyl]-4,5-dihydro-1H-1,2,4-triazol-1-yl}methyl)-1-(2,6-dichlorophenyl)-1H-1,2,4-triazol-5-yl]ethyl Carbamate] | 3.5 | 4.7 | 16.3 |
| CC(=O)NC(C)c1nc(Cn2nc(-c3ccc(Cl)cc3)n(C[C@H](O)C(F)(F)F)c2=O)nn1-c1ccccc1Cl (mixture of isomers) [Example 64, N-{1-[1-(2-Chlorophenyl)-3-({3-(4-chlorophenyl)-5-oxo-4-[(2S)-3,3,3-trifluoro-2-hydroxypropyl]-4,5-dihydro-1H-1,2,4-triazol-1-yl}methyl)-1H-1,2,4-triazol-5-yl]ethyl}acetamide] | 1.8 | 9.8 | 17.7 |
| CNc1ccncc1-n1nc(Cn2nc(-c3ccc(Cl)cc3)n(C[C@H](O)C(F)(F)F)c2=O)nc1C(C)NC(C)=O (single isomer, unassigned) [Example 127] | 53 | 29.3 | 1550 |

Stronger by IC50 (human V1a receptor), values ahead:

| IC50 (human V1a receptor) [nM] | ratio IC50 hV2/hV1a (human V1a receptor) | IC50 (human V2 receptor) [nM] | Structure (SMILES) |
| --- | --- | --- | --- |
| 1.1 | 8.8 | 9.7 | CS(=O)(=O)NC1(c2nc(Cn3nc(-c4ccc(Cl)cc4)n(C[C@H](O)C(F)(F)F)c3=O)nn2-c2ccccc2Cl)CC1 [Example 78, N-{1-[1-(2-Chlorophenyl)-3-({3-(4-chlorophenyl)-5-oxo-4-[(2S)-3,3,3-trifluoro-2-hydroxypropyl]-4,5-dihydro-1H-1,2,4-triazol-1-yl}methyl)-1H-1,2,4-triazol-5-yl]cyclopropyl}methane sulfonamide] |
| 1.08 | 6.8 | 7.37 | COc1ccccc1-n1nc(Cn2nc(-c3ccc(Cl)cc3)n(C[C@H](OC(N)=O)C(F)(F)F)c2=O)nc1C(C)OC(N)=O (single isomer, unassigned) [Example 42] |
| 0.43 | 16.6 | 7.16 | CCNC(=O)OCc1nc(Cn2nc(-c3ccc(Cl)cc3)n(C[C@H](O)C(F)(F)F)c2=O)nn1-c1ccccc1Cl [Example 47, [1-(2-Chlorophenyl)-3-({3-(4-chlorophenyl)-5-oxo-4-[(2S)-3,3,3-trifluoro-2-hydroxypropyl]-4,5-dihydro-1H-1,2,4-triazol-1-yl}methyl)-1H-1,2,4-triazol-5-yl]methyl Ethylcarbamate] |
| 0.65 | 5.5 | 3.56 | Cc1ccccc1-n1nc(Cn2nc(-c3ccc(Cl)cc3)n(C[C@H](OC(N)=O)C(F)(F)F)c2=O)nc1COC(N)=O [Example 38, (2S)-3-[1-({5-[(Carbamoyloxy)methyl]-1-(2-methylphenyl)-1H-1,2,4-triazol-3-yl}methyl)-3-(4-chlorophenyl)-5-oxo-1,5-dihydro-4H-1,2,4-triazol-4-yl]-1,1,1-trifluoropropan-2-yl Carbamate] |
| 1.1 | 31.5 | 34.5 | O=C1CC[C@@H](c2nc(Cn3nc(-c4ccc(Cl)cc4)n(C[C@H](O)C(F)(F)F)c3=O)nn2-c2cnccc2Cl)N1 [Example 123, 5-(4-Chlorophenyl)-2-({1-(4-chloropyridin-3-yl)-5-[(2S)-5-oxopyrrolidin-2-yl]-1H-1,2,4-triazol-3-yl}methyl)-4-[(2S)-3,3,3-trifluoro-2-hydroxypropyl]-2,4-dihydro-3H-1,2,4-triazol-3-one] |
| 0.55 | 6.0 | 3.25 | O=C(NC(CO)c1nc(Cn2nc(-c3ccc(Cl)cc3)n(C[C@H](O)C(F)(F)F)c2=O)nn1-c1ccccc1Cl)C(F)(F)F (single isomer, unassigned) [Example 96] |
| 1.12 | 5.3 | 5.91 | COCCNC(=O)OCc1nc(Cn2nc(-c3ccc(Cl)cc3)n(C[C@H](O)C(F)(F)F)c2=O)nn1-c1ccccc1Cl [Example 48, [1-(2-Chlorophenyl)-3-({3-(4-chlorophenyl)-5-oxo-4-[(2S)-3,3,3-trifluoro-2-hydroxypropyl]-4,5-dihydro-1H-1,2,4-triazol-1-yl}methyl)-1H-1,2,4-triazol-5-yl]methyl (2-methoxyethyl)carbamate] |
| 0.99 | 16.9 | 16.7 | CCNC(=O)OCc1nc(Cn2nc(-c3ccc(Cl)cc3)n(C[C@H](O)C(F)(F)F)c2=O)nn1-c1ccccc1C(F)(F)F [Example 49, {3-({3-(4-Chlorophenyl)-5-oxo-4-[(2S)-3,3,3-trifluoro-2-hydroxypropyl]-4,5-dihydro-1H-1,2,4-triazol-1-yl}methyl)-1-[2-(trifluoromethyl)phenyl]-1H-1,2,4-triazol-5-yl}methyl ethylcarbamate] |
